Laboratory results published in a compilation of properties of binary mixtures (doi:10.1016/j.molliq.2014.10.017).

Test: xn = mol fraction of the nth substance listed
Conditions: 101 kPa

CCOS(=O)(=O)[O-].CC[n+]1ccn(C)c1 + CC#N
speed of sound [m/s]
Conditions | 293.15 K | 298.15 K | 303.15 K | 308.15 K | 313.15 K
x2 = 0 | 1693.1 | 1680.8 | 1668.5 | – | 1644.4
x2 = 0.0934 | – | 1670.3 | – | – | 1633.5
x2 = 0.1936 | 1667 | 1654.5 | 1641.9 | 1629.3 | 1616.8
x2 = 0.2906 | 1649.5 | 1639.7 | 1623.8 | 1610.9 | 1598.1
x2 = 0.397 | 1626.4 | 1613.3 | 1599.9 | 1586.6 | 1573.5
x2 = 0.4967 | 1592.4 | 1578.7 | 1564.7 | 1550.8 | 1537
x2 = 0.5938 | – | 1552.3 | – | 1523.5 | –
x2 = 0.7001 | – | – | – | 1474.1 | 1458.9
x2 = 0.7953 | 1464.6 | 1448.5 | 1432.3 | 1416 | 1399.8
x2 = 0.8951 | – | 1373.4 | – | 1337.9 | 1320.2
x2 = 0.9516 | 1343.4 | 1324.8 | – | 1287.1 | 1268.3

CC#N + CCOS(=O)(=O)[O-].CC[n+]1ccn(C)c1
x1 = 1
Conditions | speed of sound [m/s]
293.15 K | 1298.8
298.15 K | 1279
303.15 K | 1258.8
308.15 K | 1238.6
313.15 K | 1218.5

CCCC[n+]1ccn(C)c1.N#C[S-] + CC#N
speed of sound [m/s]
Conditions | 293.15 K | 298.15 K | 303.15 K | 308.15 K | 313.15 K
x2 = 0 | 1778.8 | 1767.2 | 1755.4 | 1743.7 | 1732.1
x2 = 0.0984 | 1764.8 | 1752.9 | 1740.8 | 1728.9 | 1717
x2 = 0.1936 | 1749.3 | – | 1724.7 | 1712.5 | 1700.3
x2 = 0.3061 | – | 1714.1 | 1701.4 | 1688.7 | 1676.1
x2 = 0.4068 | 1701.6 | 1688.5 | 1675.3 | 1662.1 | 1649
x2 = 0.4899 | – | 1662.5 | 1648.8 | 1635.2 | 1621.7
x2 = 0.5994 | 1633.3 | 1618.7 | 1604.2 | 1589.7 | 1575.4
x2 = 0.6925 | 1586.2 | 1571.2 | – | 1540.8 | 1525.7
x2 = 0.7988 | – | 1498.6 | – | 1465.7 | 1449.4
x2 = 0.8971 | 1426.5 | 1408.9 | 1391 | 1373.1 | 1355.2
x2 = 0.9465 | 1372.3 | 1353.6 | 1334.8 | 1316 | 1297.2

CC#N + CCCC[n+]1ccn(C)c1.N#C[S-]
x1 = 1
Conditions | speed of sound [m/s]
303.15 K | 1258.8
313.15 K | 1218.5
